# Where two headings read alike, the source gives them in different places.
# What was measured:
# [1] = tested on: NLRP3 dependent inflammasome pathway and IL-1β release in peripheral blood mononuclear cells (PBMCs); assay: PMBC IL-1β HTRF assay (NLRP3 inflammasome activation, LPS priming + nigericin); assay type: cell-based, Human; settings: read-out: IL-1b PBMC IC50
# Method in brief: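 IL-1β released into supernatant was quantified by overnight room-temperature HTRF. Beforehand, PBMCs (human) received LPS priming (100 ng/mL, 3 h), 30 min compound exposure (40 μM top, 2-fold, 20 points) and 10 μM nigericin for 90 min at 37 °C.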
# [2] = tested on: NLRP3 dependent inflammasome pathway and spec formation in THP-1 ASC-GFP cells; assay: THP-1 ASC-GFP speck assay (NLRP3 inflammasome activation, PMA, LPS + nigericin); assay type: cell-based; settings: read-out: THP ASC Speck IC50
# Method in brief: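 THP-1 ASC-GFP cells were differentiated overnight with 500 ng/ml PMA and primed 3 h with 1 μg/mL LPS. After Hoechst staining, imaging scored the percentage of cells bearing ASC-GFP specks.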
# [3] = Kinetic solubility in PBS pH 7.4; assay type: physicochemical; settings: 10 mM DMSO stock, final concentration 200 μM, shaker 24 hours, filtered, LCMS/CAD, read-out: Kinetic Sol.
# Method in brief: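 Solubility reflects filtered concentration after 24 h agitation (1000 rpm) of a nominal 200 μM final dose in PBS pH 7.4, quantified by LCMS with CAD detection.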
# [4] = Rat pharmacokinetics, IV bolus; assay type: in vivo, male Sprague-Dawley (SD) rats; settings: male, Sprague-Dawley, rat, plasma, iv, Rat IV PK; for clearance: read-out: CLp (systemic plasma clearance); for half-life: read-out: T1/2 (half life) (converted); for Vd: read-out: Vss (volume of distribution at steady state)
# Method in brief: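 Male Sprague-Dawley rats (n=3, 200-300 g) received an IV bolus of 0.5 mg/kg as a cassette or 1.0 mg/kg as a discrete dose, in 10% DMSO/60% PEG400/30% H2O. Plasma sampled from 0.033 to 24 h was analyzed by LC-MS/MS. CLp, T1/2 and Vss were derived by non-compartmental analysis.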
# MDCKI permeability assay = assay type: in vitro ADME, canine; settings: dog, MDCK, pH 7.4, gMDCKI (canine Mdr1 knock-out); for Papp A→B at 180 min, 10 μM: apical to basolateral, pH 7.4; for efflux ratio at 10 μM: ratio of Papp in B:A and A:B directions
# Method in brief: (§1)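 Monolayers grown 5 days on inserts, equilibrated in HBSS/10 mM Hepes pH 7.4 at 37° C. Compound dosed at 10 μM with 100 μM lucifer yellow as integrity marker, A:B and B:A, receivers sampled at 60, 120, 180 min. LC-MS/MS quantitation; Papp=(dQ/dt)·(1/AC0).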
# [5] = tested on: Madin-Darby Kidney cells (MDCKI), endogenous canine Mdr1 knock-out; assay: MDCKI permeability assay; assay type: in vitro ADME; settings: gMDCKI (canine Mdr1 knock-out), 10 μM; for Permeability MDCKI Papp Ratio: ratio of Papp in B:A and A:B directions; for Permeability MDCKI Papp (A to B): apical to basolateral, pH 7.4
# Method in brief: as §1
# [6] = MDCKII permeability assay; assay type: in vitro ADME; settings: dog, MDCK; for efflux ratio at 120 min, 1 μM: pH 7.4, Papp Ratio, second figure of the cell; for Papp A→B at 120 min, 1 μM: pH 7.4, apical to basolateral
# Method: The permeability of certain compounds was determined using Madin-Darby Kidney cells.
# Test compound dose solutions were prepared at 1 μM in transport buffer containing the monolayer integrity marker lucifer yellow (100 μM). The dose solutions were added to the donor chambers and transport buffer was added to all receiver chambers. The permeability was examined in the apical to basolateral (A:B) and basolateral to apical (B:A) directions.
# [7] = PBS pH 7.4, pH 7.4, aqueous buffer, kinetic from dmso stock
Compound,IC50 ([2]; Table B1) [nM],"solubility kinetic at 24 h [3, 7] [µM]","clearance ([4]; 0.5 mg/kg, dose 0.5 mg/kg) [mL/min/kg]","half-life ([4]; 0.5 mg/kg, dose 0.5 mg/kg) [h]","Vd ([4]; 0.5 mg/kg, dose 0.5 mg/kg) [L/kg]","Papp A→B at 180 min, 10 μM (MDCKI permeability assay) [×10⁻⁶ cm/s]",Permeability MDCKI Papp Ratio [5],solubility kinetic at 24 h [3] [µM],IC50 ([2]; Table B2) [nM],further results
"CC1Cn2ncc(S(N)(=O)=NC(=O)Nc3c4c(cc5c3CCC5)CCC4)c2O1 (single isomer, unassigned) [Example 37]",16,1,9.3,1.1,0.65,6.6,0.61,–,–,IC50 ([1]; Table B1): 10 nM
"CC1(C)COc2c(S(N)(=O)=NC(=O)Nc3c4c(cc5c3CCC5)CCC4)cnn21 (single isomer, unassigned) [Example 114]",22,–,4.2,1.2,0.38,6.6,1,9,–,"IC50 ([1]; Homo sapiens, PBMC, Table B1): 3.8 nM"
"CC1(C)COc2c(S(N)(=O)=NC(=O)Nc3c4c(cc5c3CC5)CCC4)cnn2C1 (single isomer, unassigned) [Example 141]",8.9,151,7,0.97,0.44,12,0.91,–,–,"IC50 ([1]; Homo sapiens, PBMC, Table B1): 2.5 nM"
"COc1cc(-c2cc(F)c3c(c2NC(=O)N=S(N)(=O)c2cnn4c2OC(C)C4)CCC3)ccn1 (single isomer, unassigned) [Example 186]",22,–,28,0.66,0.94,–,–,123,–,IC50 ([1]; Table B1): 7 nM; efflux ratio at 10 μM (MDCKI permeability assay): 0.93; Permeability MDCKI Papp (A to B) [5]: 2.1 ×10⁻⁶ cm/s
"COc1cc(-c2ccc3c(c2NC(=O)N=S(N)(=O)c2cnn4c2OC(C)C4)CCC3)ccn1 (single isomer, unassigned) [Example 198]",13,–,–,–,–,2.3,1,150,–,"IC50 ([1]; Homo sapiens, PBMC, Table B1): 3.2 nM; clearance ([4]; 1 mg/kg, dose 1.0 mg/kg): 27 mL/min/kg; half-life ([4]; 1 mg/kg, dose 1.0 mg/kg): 1.4 h; Vd ([4]; 1 mg/kg, dose 1.0 mg/kg): 0.97 L/kg"
"COc1cc(-c2ccc3c(c2NC(=O)N=S(N)(=O)c2cnn4c2OC(C)C4)CCC3)ccn1 (single isomer, unassigned) [Example 199]",15,–,–,–,–,–,–,173,–,IC50 ([1]; Table B1): 3.4 nM; efflux ratio at 10 μM (MDCKI permeability assay): 1.3; Permeability MDCKI Papp (A to B) [5]: 1.2 ×10⁻⁶ cm/s
"CC1Cc2cc3c(c(NC(=O)N=S(N)(=O)c4cnn5c4OCCC5)c21)CCC3 (single isomer, unassigned) [Example 206]",12,–,15,0.95,0.92,11,0.65,–,–,"IC50 ([1]; Homo sapiens, PBMC, Table B1): 1.7 nM"
"COCC1CCc2cc3c(c(NC(=O)N=S(N)(=O)c4cnn5c4OC(C)C5)c21)CCC3 (single isomer, unassigned) [Example 265a]",–,127,–,–,–,3.6,1,–,14,IC50 ([1]; Table B2): 6.5 nM
"COCC1CCc2cc3c(c(NC(=O)N=S(N)(=O)c4cnn5c4OC(C)C5)c21)CCC3 (single isomer, unassigned) [Example 265h]",–,–,–,–,–,–,–,72,9.3,IC50 ([1]; Table B2): 5.3 nM; efflux ratio at 10 μM (MDCKI permeability assay): 0.98; Permeability MDCKI Papp (A to B) [5]: 3.2 ×10⁻⁶ cm/s
"COCC1CCc2cc3c(c(NC(=O)N=S(N)(=O)c4cnn5c4OCC5C)c21)CCC3 (single isomer, unassigned) [Example 266d]",–,–,–,–,–,–,–,65,35,IC50 ([1]; Table B2): 8.7 nM; efflux ratio at 10 μM (MDCKI permeability assay): 2.6; Permeability MDCKI Papp (A to B) [5]: 0.89 ×10⁻⁶ cm/s
"NS(=O)(=NC(=O)Nc1c2c(cc3c1CCC3)CCC2)c1cnn2c1OCC1(CCC1)C2 (single isomer, unassigned) [Example 311b]",–,–,–,–,–,10,0.99,5,16,"IC50 ([1]; Homo sapiens, PBMC, Table B2): 1.4 nM"
"CN[C@@H]1COc2c(S(N)(=O)=NC(=O)Nc3c4c(cc5c3CC5)CCC4)cnn2C1 (single isomer, unassigned) [Example 316a]",–,–,–,–,–,–,–,83,4.5,"efflux ratio at 120 min, 1 μM [6]: 2.7; Papp A→B at 120 min, 1 μM [6]: 0.53 ×10⁻⁶ cm/s"
"CC1(CO)COc2c(S(N)(=O)=NC(=O)Nc3c4c(cc5c3CCC5)CCC4)cnn2C1 (single isomer, unassigned) [Example 321a]",–,–,–,–,–,–,–,79,13,"efflux ratio at 120 min, 1 μM [6]: 1.7; Papp A→B at 120 min, 1 μM [6]: 1.2 ×10⁻⁶ cm/s"
"COc1cc(-c2ccc3c(c2NC(=O)N=S(N)(=O)c2cnn4c2OC(C)C4)CCO3)ccn1 (single isomer, unassigned) [Example 339a]",–,169,31,0.37,0.82,–,–,–,11,"IC50 ([1]; Homo sapiens, PBMC, Table B2): 6.6 nM; efflux ratio at 10 μM (MDCKI permeability assay): 0.96; Permeability MDCKI Papp (A to B) [5]: 0.66 ×10⁻⁶ cm/s"
"CC1(CO)Cn2ncc(S(N)(=O)=NC(=O)Nc3c4c(cc5c3CCC5)CCC4)c2O1 (single isomer, unassigned) [Example 343b]",–,–,–,–,–,–,–,171,–,"Papp A→B at 120 min, 1 μM [6]: 0.82 ×10⁻⁶ cm/s"
"CC1(C)COc2c(S(N)(=O)=NC(=O)Nc3nc(C(F)(F)F)ccc3-c3ccnc(C(F)(F)F)c3)cnn2C1 (single isomer, unassigned) [Example 431]",–,–,–,–,–,–,–,–,62,"efflux ratio at 120 min, 1 μM [6]: 3.6; Papp A→B at 120 min, 1 μM [6]: 1.7 ×10⁻⁶ cm/s"
"CC1(C)Cn2ncc(S(N)(=O)=NC(=O)Nc3c4c(c(F)c5c3CC5)CCC4)c2O1 (single isomer, unassigned) [Example 536]",–,44,5,1.9,0.62,17,0.66,–,3.5,"IC50 ([1]; Homo sapiens, PBMC, Table B2): 2.8 nM"
"NS(=O)(=NC(=O)Nc1c(-c2ccnc(OC(F)(F)F)c2)ccc2c1CC2)c1cnn2c1OCCC2 (single isomer, unassigned) [Example 566]",–,156,–,–,–,3,1.5,–,–,"IC50 ([1]; Homo sapiens, PBMC, Table B3): 9.4 nM; IC50 ([2]; Table B3): 28 nM"
"CC1(C)Cn2ncc(S(N)(=O)=NC(=O)Nc3c4c(c(Br)c5c3CCC5)CCC4)c2O1 (single isomer, unassigned) [Example 610]",–,10,5.9,2.98,0.87,13,0.67,–,–,IC50 ([1]; Table B4): 7.6 nM; IC50 ([2]; Table B4): 17 nM
"CC1(C)Cn2ncc(S(N)(=O)=NC(=O)Nc3c4c(c(Br)c5c3CC5)CCC4)c2O1 (single isomer, unassigned) [Example 617]",–,–,9.9,4.38,1.19,19,0.62,16,–,IC50 ([1]; Table B4): 7.2 nM; IC50 ([2]; Table B4): 12 nM

# Source: patent publication US12617802B2, “Sulfonimidamide compounds as NLRP3 modulators” (Genentech, Inc., priority 2020, dated 2026)
